Active and inactive are the calls of the source.
Key:
[1] = C. albicans growth with fluconazole, confirmation, fluorescence, retest (AID 2467); type: functional, cell-based
Exodeoxyribonuclease V = target: T1, Exodeoxyribonuclease V (Escherichia coli (strain K12), UniProt P04993+P07648+P08394); experiment: E. coli RecBCD inhibitors, dose response, counter-screen for AddAB inhibitor project, absorbance, V66 E. coli, mutant T4 phage (AID 492957); type: functional, cell-based, Escherichia coli str. K-12 substr. MG1655
T1 sequence (P04993 whole entry): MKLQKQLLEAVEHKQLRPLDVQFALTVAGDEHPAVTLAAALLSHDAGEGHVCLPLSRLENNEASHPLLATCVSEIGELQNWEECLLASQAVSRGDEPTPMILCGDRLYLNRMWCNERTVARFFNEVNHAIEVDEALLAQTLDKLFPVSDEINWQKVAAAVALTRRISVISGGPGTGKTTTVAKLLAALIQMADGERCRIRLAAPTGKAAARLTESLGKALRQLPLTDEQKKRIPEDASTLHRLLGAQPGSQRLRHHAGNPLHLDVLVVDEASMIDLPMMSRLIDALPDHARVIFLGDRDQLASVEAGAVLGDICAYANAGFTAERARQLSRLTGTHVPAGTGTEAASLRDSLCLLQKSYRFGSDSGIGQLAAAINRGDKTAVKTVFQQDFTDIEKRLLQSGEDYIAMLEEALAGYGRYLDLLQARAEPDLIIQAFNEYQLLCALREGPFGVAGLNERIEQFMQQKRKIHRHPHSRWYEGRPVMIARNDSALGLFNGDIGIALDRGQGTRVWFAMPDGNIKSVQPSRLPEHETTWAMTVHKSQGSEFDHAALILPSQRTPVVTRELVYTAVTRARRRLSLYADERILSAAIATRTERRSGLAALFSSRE
T1 sequence (P07648 whole entry): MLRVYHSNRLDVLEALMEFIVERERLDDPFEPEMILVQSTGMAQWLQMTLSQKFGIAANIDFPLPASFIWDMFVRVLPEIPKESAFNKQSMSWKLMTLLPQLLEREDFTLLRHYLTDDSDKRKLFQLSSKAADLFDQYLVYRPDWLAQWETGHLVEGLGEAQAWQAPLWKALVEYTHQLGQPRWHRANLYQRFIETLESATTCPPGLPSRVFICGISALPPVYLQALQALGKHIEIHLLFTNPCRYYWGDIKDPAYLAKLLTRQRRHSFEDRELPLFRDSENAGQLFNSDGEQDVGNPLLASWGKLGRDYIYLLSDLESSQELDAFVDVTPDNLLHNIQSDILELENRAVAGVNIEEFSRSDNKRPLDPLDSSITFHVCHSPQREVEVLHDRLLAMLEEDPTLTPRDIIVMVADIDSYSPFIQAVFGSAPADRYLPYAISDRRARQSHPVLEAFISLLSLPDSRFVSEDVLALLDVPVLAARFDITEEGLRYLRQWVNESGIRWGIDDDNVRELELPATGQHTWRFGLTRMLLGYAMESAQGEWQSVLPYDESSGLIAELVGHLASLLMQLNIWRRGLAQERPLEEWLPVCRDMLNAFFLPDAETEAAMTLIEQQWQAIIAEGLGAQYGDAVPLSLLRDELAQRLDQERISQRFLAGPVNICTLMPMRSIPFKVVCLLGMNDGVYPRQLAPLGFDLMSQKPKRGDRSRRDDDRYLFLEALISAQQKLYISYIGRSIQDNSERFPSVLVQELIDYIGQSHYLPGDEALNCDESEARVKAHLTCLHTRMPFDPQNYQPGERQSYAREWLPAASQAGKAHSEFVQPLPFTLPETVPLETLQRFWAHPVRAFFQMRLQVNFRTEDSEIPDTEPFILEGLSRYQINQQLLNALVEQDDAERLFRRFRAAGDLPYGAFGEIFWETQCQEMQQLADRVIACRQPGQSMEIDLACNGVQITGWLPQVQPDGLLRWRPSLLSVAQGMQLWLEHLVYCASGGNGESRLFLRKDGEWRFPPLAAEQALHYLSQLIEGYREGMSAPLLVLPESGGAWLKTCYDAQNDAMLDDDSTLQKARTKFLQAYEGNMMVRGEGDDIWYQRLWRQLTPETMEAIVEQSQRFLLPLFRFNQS
T1 sequence (P08394 whole entry): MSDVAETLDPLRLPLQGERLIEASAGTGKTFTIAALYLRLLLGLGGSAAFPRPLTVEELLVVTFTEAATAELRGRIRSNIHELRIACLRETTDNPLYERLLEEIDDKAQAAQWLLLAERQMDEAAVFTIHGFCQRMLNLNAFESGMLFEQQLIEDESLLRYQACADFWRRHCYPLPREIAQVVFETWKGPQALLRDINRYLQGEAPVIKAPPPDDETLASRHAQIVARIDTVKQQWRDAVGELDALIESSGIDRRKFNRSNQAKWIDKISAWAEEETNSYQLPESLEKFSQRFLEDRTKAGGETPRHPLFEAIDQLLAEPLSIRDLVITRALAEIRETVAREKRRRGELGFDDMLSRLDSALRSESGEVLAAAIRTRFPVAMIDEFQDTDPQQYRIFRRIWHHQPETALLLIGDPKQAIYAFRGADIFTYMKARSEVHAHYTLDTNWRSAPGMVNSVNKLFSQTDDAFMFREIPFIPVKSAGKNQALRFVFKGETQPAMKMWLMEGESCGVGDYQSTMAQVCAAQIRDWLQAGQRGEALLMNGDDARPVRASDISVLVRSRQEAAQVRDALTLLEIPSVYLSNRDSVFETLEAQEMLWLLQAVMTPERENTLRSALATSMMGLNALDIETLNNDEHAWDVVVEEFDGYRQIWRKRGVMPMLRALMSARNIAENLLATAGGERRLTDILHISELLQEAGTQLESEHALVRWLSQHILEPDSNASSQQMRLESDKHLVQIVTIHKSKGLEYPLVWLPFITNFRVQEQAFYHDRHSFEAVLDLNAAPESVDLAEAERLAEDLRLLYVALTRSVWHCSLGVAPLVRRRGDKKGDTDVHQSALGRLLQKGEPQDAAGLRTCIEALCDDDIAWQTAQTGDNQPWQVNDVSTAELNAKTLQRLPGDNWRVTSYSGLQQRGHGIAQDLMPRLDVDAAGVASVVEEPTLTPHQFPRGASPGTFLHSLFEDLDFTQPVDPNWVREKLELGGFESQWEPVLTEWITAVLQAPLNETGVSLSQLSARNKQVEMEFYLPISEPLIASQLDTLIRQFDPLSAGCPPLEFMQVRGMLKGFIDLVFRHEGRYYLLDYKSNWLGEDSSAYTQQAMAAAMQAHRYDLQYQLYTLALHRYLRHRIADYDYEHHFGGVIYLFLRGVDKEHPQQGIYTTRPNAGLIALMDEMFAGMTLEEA

## CCCCC(=O)NC(c1ccc(N(C)C)cc1)c1ccc2cccnc2c1O (configuration not stated)
[1]
  EC50: 0.832 µM (active)
Exodeoxyribonuclease V
  IC50: > 119 µM (inactive)

Source: ChEMBL document CHEMBL1201862, “PubChem BioAssay data set” (2004)
